Numbers after ± are expanded uncertainties.
Legend:
[1] = Crystal; DTA
[2] = Molar enthalpy of transition or fusion; details: Crystal; DSC

In the case of `COc1ccc2c(c1)c(CC(=O)O)c(C)n2C(=O)c1ccc(Cl)cc1`, the Normal melting temperature [1] is reported as 160.0 ± 1.1 °C and the “Molar enthalpy of transition or fusion” value [2] is reported as 37.9 ± 2.4 kJ/mol.
With `NC(=O)c1cccnc1` [3-pyridinecarboxamide] the Normal melting temperature [1] was 128.6 ± 1.1 °C and the “Molar enthalpy of transition or fusion” value [2] was 22.6 ± 1.4 kJ/mol.

Reference: the NIST ThermoML archive (doi:10.1016/j.jct.2015.01.015)
